Where “and” joins values, the source holds several entries; their conditions need not be identical. Equal values may be shown once.
Molecular target: IKs (KCNQ1 + KCNE1) (Homo sapiens, UniProt P51787)
Experiment: Two-electrode voltage clamp of IKs channels expressed in Xenopus oocytes
Type: cell-based
Design: key to G/Gcontrol(max): conductance / max control conductance (control max = 1)
Conditions: for Current: Fig. 4g; for ∆V1/2 of activation induced by CP1 (mean): Fig. 4i dose response; for G/Gcontrol(max): Fig. 4h
Excerpt: Our previous studies have shown that the VSD of KCNQ1 activates to an intermediate state (I state) and an activated state (A state) upon membrane depolarization, and the pore can open when VSD is at either the intermediate (IO state) or activated (AO state)[23],[24]. The association of the auxiliary subunit KCNE1 with KCNQ1 affects VSD-pore coupling to suppress the IO state and enhance the AO state. Correspondingly, the association of KCNE1 also increases the PIP2 sensitivity of the channel[24],[37]. […] The most prominent effect of CP1 is to dramatically slow the deactivation of IKs, such that at 2 µM CP1, it took a 100-s interval at −120 mV for all the channels to deactivate from their previous activation (Fig. 4a). The application of 2 µM CP1 shifted the G–V relation to more negative voltages by ~13 mV (Fig. 4b). […] A fraction of the constitutively open channels might have been open during the previous test pulses and not deactivated during the shorter and less-hyperpolarized interval pulse to cause a current accumulation. […] In higher concentrations of CP1, we were not able to suppress the constitutive opening of KCNQ1 channels even with long and negative interval voltages, so that we used 20-s and −80-mV interval pulses in the recordings (Fig. 4e). […] In comparison with KCNQ1 expressed alone, CP1 caused a larger shift of the G–V relationship when KCNE1 was co-expressed (Fig. 4i). Since the IKs currents were difficult to measure accurately at high CP1 concentrations, we were unable to determine the EC50 of the channel response to CP1.
Fig. 4 Effects of CP1 on IKs channels. a, b IKs currents in the absence (left) and presence of 2 µM CP1 (right) recorded with 100-s and −120-mV interval pulses between testing voltages. Holding potential: −80 mV; testing potential: −120 to +80 mV; returning potential: −40 mV (a). G–V relations (b). c, d IKs recorded at the same conditions as in (a), except for the interval pulses, was 20 s at −80 mV. e, f IKs in the absence or presence of 10 µM CP1. The voltage protocol was the same as in (b). g, h Current (g) and relative conductance (h) increases of IKs channels by 10 µM CP1. In h, the measured conductance in CP1 at all voltages was divided by the maximum measured conductance in control, and then normalized with the maximum measured conductance in control being 1. i Dose response for ΔV1/2 of G–V relations to different CP1 concentrations as compared with those of KCNQ1 (dashed line).
The use of Xenopus laevis to obtain oocytes was approved by the Washington University Animal Studies Committee (protocol #20190030). Oocytes were manually dispersed and digested with collagenase (0.5 mg/ml, Sigma-Aldrich, Saint Louis, MO) to remove the follicle cell layer. Stage V or VI oocytes were selected and injected with cRNAs (9.2 ng) of channel or mutations. Especially, to characterize IKs, a mix of cRNAs at a molar ratio 4:1 (KCNQ1:KCNE1) was injected. For KCNQ2/KCNQ3, the molar ratio was 1:1 (KCNQ2:KCNQ3). For sodium channels, a 3:1 molar ratio (β1:NaV1.5) and for calcium channels a weight ratio 1:1:1 (β1:α2/δ1:CaV1.2) was injected, respectively. Injected oocytes were incubated in ND96 solution containing (in mM) 96 NaCl, 2 KCl, 1.8 CaCl2, 1 MgCl2, and 5 HEPES, pH 7.6, supplemented with 2.5 mM Na pyruvate and 1% penicillin–streptomycin, at 18 °C for 3–7 days before recording.
The whole-oocyte ionic currents were recorded with a GeneClamp 500B amplifier (Axon Instruments, CA) or iTEV90 amplifier (HEKA, Germany) and then sampled at 1 kHz and low-pass-filtered at 2 kHz. The Patchmaster software (HEKA, Germany) was used to acquire data. The Kir1.1 current was recorded with a high K^+ bath solution containing (in mM) 96 KCl, 4 NaCl, 1 CaCl2, 2 MgCl2, and 10 HEPES, pH 7.3–7.4. The HCN4 current was recorded in ND66 solution containing (in mM) 66 NaCl, 32 KCl, 1.8 CaCl2, 1 MgCl2, and 5 HEPES, pH 7.6. All the other potassium channels were recorded in ND96 solution. […]

For `O=S(=O)([O-])Oc1c(-c2sc3c(ccc4cccc(Cl)c43)c2OS(=O)(=O)[O-])[nH]c2ccc(Br)cc12.[Na+].[Na+]` [CP1, DISODIUM 5-BROMO-2-[9-CHLORO-3-(SULFONATOOXY) NAPHTHO [1,2-B] THIEN-2-YL]-1H-INDOL-3-YL SULFATE], the “shift of G–V relation” value (2 µM CP1, 20-s and −80-mV interval pulses) was ~ 12 mV, the “shift of G–V relation to more negative voltages” value (2 µM CP1, 100-s and −120-mV interval pulses) was ~ 13 mV and the “outward current (Icp1/Ictrl)” value (10 µM CP1, Q1/E1, at +40 mV, individual oocytes) was 3.3641 and 3.7408 and 2.3715 and 2.9989 and 4.6393. For the same compound, the “∆V1/2” value (10 µM CP1, Q1/E1, individual oocytes) was 64.6738 mV and 84.3167 mV and 109.16 mV and 34.9084 mV and 123.145 mV, the “τ deact at -120 mV” value (10 µM CP1 treated, Q1/E1, individual oocytes) was 3.5736 s and 3.9322 s and 2.999 s and 3.0124 s and 2.7649 s and 3.45 s and 3.7957 s and the “G/Gmax Mean” value (Fig. 4b, 2 µM CP1, 0 mV) was 0.3833. For the same compound, the “G/Gmax Mean” value (Fig. 4b, 2 µM CP1, 20 mV) was 0.7035, the “G/Gmax Mean” value (Fig. 4b, 2 µM CP1, 40 mV) was 0.9619 and the “G/Gmax Mean” value (Fig. 4b, 2 µM CP1, 60 mV) was 1.0000. The “G/Gmax Mean” value (Fig. 4b, 2 µM CP1, -20 mV) was 0.1567, the “G/Gmax Mean” value (Fig. 4b, 2 µM CP1, -40 mV) was 0.0500 and the “G/Gmax Mean” value (Fig. 4b, 2 µM CP1, -60 mV) was 0.0188. For the same compound, the “G/Gmax Mean” value (Fig. 4b, 2 µM CP1, -80 mV) was 0.0090, the “G/Gmax Mean” value (Fig. 4b, 2 µM CP1, -100 mV) was 0.0050 and the “G/Gmax Mean” value (Fig. 4b, 2 µM CP1, -120 mV) was 0.0140. For the same compound, the “G/Gmax Mean” value (Fig. 4f, 10 µM CP1, 0 mV) was 0.9498, the “G/Gmax Mean” value (Fig. 4f, 10 µM CP1, 10 mV) was 0.9622 and the “G/Gmax Mean” value (Fig. 4f, 10 µM CP1, 20 mV) was 0.9768. The “G/Gmax Mean” value (Fig. 4f, 10 µM CP1, 30 mV) was 0.9888, the “G/Gmax Mean” value (Fig. 4f, 10 µM CP1, 40 mV) was 0.9959 and the “G/Gmax Mean” value (Fig. 4f, 10 µM CP1, 50 mV) was 1.0000. For the same compound, the “G/Gmax Mean” value (Fig. 4f, 10 µM CP1, 60 mV) was 0.9995, the “G/Gmax Mean” value (Fig. 4f, 10 µM CP1, 70 mV) was 0.9975 and the “G/Gmax Mean” value (Fig. 4f, 10 µM CP1, 80 mV) was 0.9882. For the same compound, the “G/Gmax Mean” value (Fig. 4f, 10 µM CP1, -10 mV) was 0.9293, the “G/Gmax Mean” value (Fig. 4f, 10 µM CP1, -20 mV) was 0.9108 and the “G/Gmax Mean” value (Fig. 4f, 10 µM CP1, -30 mV) was 0.8947. The “G/Gmax Mean” value (Fig. 4f, 10 µM CP1, -40 mV) was 0.8796, the “G/Gmax Mean” value (Fig. 4f, 10 µM CP1, -50 mV) was 0.8652 and the “G/Gmax Mean” value (Fig. 4f, 10 µM CP1, -60 mV) was 0.8490. For the same compound, the “G/Gmax Mean” value (Fig. 4f, 10 µM CP1, -70 mV) was 0.8309, the “G/Gmax Mean” value (Fig. 4f, 10 µM CP1, -80 mV) was 0.8109 and the “G/Gmax Mean” value (Fig. 4f, 10 µM CP1, -90 mV) was 0.7850. For the same compound, the “G/Gmax Mean” value (Fig. 4f, 10 µM CP1, -100 mV) was 0.7801, the “G/Gmax Mean” value (Fig. 4f, 10 µM CP1, -110 mV) was 0.7703 and the “G/Gmax Mean” value (Fig. 4f, 10 µM CP1, -120 mV) was 0.7614. The Current (10 µM CP1, 0 mV) was 11.3690 µA, the Current (10 µM CP1, 10 mV) was 13.1145 µA and the Current (10 µM CP1, 20 mV) was 14.8276 µA. For the same compound, the Current (10 µM CP1, 30 mV) was 16.4399 µA, the Current (10 µM CP1, 40 mV) was 17.8196 µA and the Current (10 µM CP1, 50 mV) was 18.8339 µA. The Current (10 µM CP1, 60 mV) was 19.4658 µA, the Current (10 µM CP1, 70 mV) was 19.7856 µA and the Current (10 µM CP1, 80 mV) was 19.9691 µA. For the same compound, the Current (10 µM CP1, -10 mV) was 9.6451 µA, the Current (10 µM CP1, -20 mV) was 8.0042 µA and the Current (10 µM CP1, -30 mV) was 6.4510 µA. For the same compound, the Current (10 µM CP1, -40 mV) was 5.0169 µA, the Current (10 µM CP1, -50 mV) was 3.6974 µA and the Current (10 µM CP1, -60 mV) was 2.5078 µA. It also gave a Current (10 µM CP1, -70 mV) of 1.4333 µA, a Current (10 µM CP1, -80 mV) of 0.5290 µA and a Current (10 µM CP1, -90 mV) of -0.3014 µA. It also gave a Current (10 µM CP1, -100 mV) of -0.9865 µA, a Current (10 µM CP1, -110 mV) of -1.5545 µA and a Current (10 µM CP1, -120 mV) of -2.0910 µA. The “∆V1/2 of activation induced by CP1 (mean)” value (“∆V1/2 of activation induced” below) ([CP1] 1 µM) was 14.4504 mV, the “∆V1/2 of activation induced” value ([CP1] 2 µM) was 15.8525 mV and the “∆V1/2 of activation induced” value ([CP1] 3 µM) was 21.4391 mV. The “∆V1/2 of activation induced” value ([CP1] 5 µM) was 41.6182 mV, the “∆V1/2 of activation induced” value ([CP1] 6 µM) was 46.8783 mV and the “∆V1/2 of activation induced” value ([CP1] 10 µM) was 97.2701 mV. For the same compound, the “∆V1/2 of activation induced” value ([CP1] 15 µM) was 120.8217 mV, the “∆V1/2 of activation induced” value ([CP1] 20 µM) was 143.8484 mV and the “∆V1/2 of activation induced” value ([CP1] 25 µM) was 174.0381 mV. The “G/Gcontrol(max)” value (10 µM CP1, 0 mV) was 2.2457, the “G/Gcontrol(max)” value (10 µM CP1, 10 mV) was 2.2822 and the “G/Gcontrol(max)” value (10 µM CP1, 20 mV) was 2.3257. For the same compound, the “G/Gcontrol(max)” value (10 µM CP1, 30 mV) was 2.3635, the “G/Gcontrol(max)” value (10 µM CP1, 40 mV) was 2.3895 and the “G/Gcontrol(max)” value (10 µM CP1, 50 mV) was 2.4063. For the same compound, the “G/Gcontrol(max)” value (10 µM CP1, 60 mV) was 2.4120, the “G/Gcontrol(max)” value (10 µM CP1, 70 mV) was 2.4121 and the “G/Gcontrol(max)” value (10 µM CP1, 80 mV) was 2.3902. The “G/Gcontrol(max)” value (10 µM CP1, -10 mV) was 2.1869, the “G/Gcontrol(max)” value (10 µM CP1, -20 mV) was 2.1346 and the “G/Gcontrol(max)” value (10 µM CP1, -30 mV) was 2.0892. The “G/Gcontrol(max)” value (10 µM CP1, -40 mV) was 2.0471, the “G/Gcontrol(max)” value (10 µM CP1, -50 mV) was 2.0074 and the “G/Gcontrol(max)” value (10 µM CP1, -60 mV) was 1.9645. For the same compound, the “G/Gcontrol(max)” value (10 µM CP1, -70 mV) was 1.9185, the “G/Gcontrol(max)” value (10 µM CP1, -80 mV) was 1.8692 and the “G/Gcontrol(max)” value (10 µM CP1, -90 mV) was 1.8061. For the same compound, the “G/Gcontrol(max)” value (10 µM CP1, -100 mV) was 1.7954, the “G/Gcontrol(max)” value (10 µM CP1, -110 mV) was 1.7738 and the “G/Gcontrol(max)” value (10 µM CP1, -120 mV) was 1.7540. For the same compound, the “G/Gmax Mean” value (Fig. 4d, 2 µM CP1, 0 mV) was 0.2264, the “G/Gmax Mean” value (Fig. 4d, 2 µM CP1, 20 mV) was 0.4604 and the “G/Gmax Mean” value (Fig. 4d, 2 µM CP1, 40 mV) was 0.7375. For the same compound, the “G/Gmax Mean” value (Fig. 4d, 2 µM CP1, 60 mV) was 0.9406, the “G/Gmax Mean” value (Fig. 4d, 2 µM CP1, 80 mV) was 1.0000 and the “G/Gmax Mean” value (Fig. 4d, 2 µM CP1, -20 mV) was 0.0874. For the same compound, the “G/Gmax Mean” value (Fig. 4d, 2 µM CP1, -40 mV) was 0.0291, the “G/Gmax Mean” value (Fig. 4d, 2 µM CP1, -60 mV) was 0.0147 and the “G/Gmax Mean” value (Fig. 4d, 2 µM CP1, -80 mV) was 0.0247. The “G/Gmax Mean” value (Fig. 4d, 2 µM CP1, -100 mV) was 0.0692.

— publication PMC7367283, “A PIP2 substitute mediates voltage sensor-pore coupling in KCNQ activation” (Communications Biology, 2020)
